Assay results reported in ChEMBL document CHEMBL1201862, “PubChem BioAssay data set” (2004).
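1) Cells in 96-well plates. 2) Compound, 48 h, 5 concentrations. 3) Linear interpolation between surrounding doses. 4) Unreached endpoint = highest concentration. GI50 marks 50% less growth.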 The source made the active and inactive calls. Rule as the data show it: active = GI50 up to about 1.1 µM and inactive = higher.

How the values were obtained:
Test in all cases: DTP human tumour cell line panel, 48 h
[1] = system: A498
[2] = system: A549
[3] = system: HCT-116
[4] = system: HCT-15
[5] = system: HL-60
[6] = system: HOP-62
[7] = system: IGROV-1
[8] = system: K562
[9] = system: NCI-H226
[10] = system: NCI-H23
[11] = system: NCI-H522
[12] = system: NCI/ADR-RES
[13] = system: SF-268
[14] = system: SK-MEL-2
[15] = system: SNB-19
[16] = system: SW-620
[17] = system: U-251
[18] = system: UACC-62
[19] = system: UO-31
[20] = system: ACHN

SMILES | GI50 [1] | GI50 [2] | GI50 [3] | GI50 [4] | GI50 [5] | GI50 [6] | GI50 [7] | GI50 [8] | GI50 [9] | GI50 [10] | GI50 [11] | GI50 [12] | GI50 [13] | GI50 [14] | GI50 [15] | GI50 [16] | GI50 [17] | GI50 [18] | GI50 [19] | GI50 [20]
CCN(CC)CCCNc1ncc(C)c2[nH]c3ccncc3c12 | 17.6 µM (inactive) | 4.91 µM (inactive) | 6.58 µM (inactive) | 35.1 µM | 22 µM (inactive) | 18.6 µM (inactive) | 5.37 µM (inactive) | 14.8 µM (inactive) | 5.69 µM (inactive) | 12.7 µM (inactive) | 7.74 µM (inactive) | > 100 µM (inactive) | 6.75 µM (inactive) | 10.5 µM (inactive) | 15.1 µM (inactive) | 4.71 µM (inactive) | 7.21 µM (inactive) | 8.99 µM (inactive) | 28.1 µM (inactive) | –
CCOC(=O)Oc1ccc(C(CNC(C)C)OC(=O)OCC)cc1OC(=O)OCC (stereo not drawn) | > 100 µM (inactive) | > 100 µM (inactive) | > 100 µM (inactive) | > 100 µM | 25.4 µM (inactive) | > 100 µM (inactive) | > 100 µM (inactive) | > 100 µM (inactive) | > 100 µM (inactive) | > 100 µM (inactive) | 49.9 µM (inactive) | > 100 µM (inactive) | > 100 µM (inactive) | > 100 µM (inactive) | > 100 µM (inactive) | > 100 µM (inactive) | > 100 µM (inactive) | > 100 µM (inactive) | 43.4 µM (inactive) | > 100 µM (inactive)
COc1cc(C2c3cc4c(cc3[C@@H](Nc3cnc5ccccc5c3)C3COC(=O)[C@H]23)OCO4)cc(OC)c1O (stereo partly drawn) | 0.22 µM (active) | < 0.01 µM (active) | 0.46 µM (active) | 0.148 µM | < 0.033 µM (active) | 0.128 µM (active) | 1.39 µM (inactive) | 0.649 µM (active) | 0.152 µM (active) | 0.311 µM (active) | 1.03 µM (active) | 1.51 µM (inactive) | 0.327 µM (active) | 1.76 µM (inactive) | 0.221 µM (active) | 0.296 µM (active) | 0.238 µM (active) | 0.301 µM (active) | 0.275 µM (active) | –
